In US9066965B1, “Purified limonin glucoside for prevention and treatment of chronic diseases” (The United States of America, as represented by the …, priority 2012, dated 2015):
Where “and” joins values, the source holds several entries; their conditions need not be identical. Equal values may be shown once. Entries after “also recorded” stand apart in the source; their conditions may differ.

Assays:
Assay type in all cases: in vivo, human
[1] = tested on: peripheral blood mononuclear cells (PBMNC); experiment: Ex-vivo production of cytokines by PBMNC
Description: Peripheral blood mononuclear cells (PBMNC) were isolated by using Dulbecco's phosphate buffered saline (DPBS) and suspended in Russ's-10 medium containing 10% autologous sera at concentrations of 1 million/mL. PBMNC were cultured in Costar 96-well sterile flat bottom plates coated with mouse anti-human CD3 and CD28 to stimulate T cells. Another set of wells were stimulated with LPS (final concentration 10 ng/mL) to stimulate monocytes. Cell culture supernatants were collected at 24, 48, and 72 hr after stimulation by centrifugation. Cell culture supernatants were stored at −80° C. until tested for cytokine concentrations. All cytokines were analyzed on a BioPlex instrument (BioRad Laboratories, Richmond, Calif.) with multiplex reagents kits (Millipore Corp., Danvers, Mass.).
(§1) Results are presented as means±SEM.

[2] = Adverse effects and tolerability of the LG drink
Source text: A total of 11 adverse events were reported by 6 subjects for the entire duration of the study (data not shown). Some of these events such as volunteer hurting their back or hand were definitely unrelated to the drinks, while others like a weird taste, dry throat seem related to the drinks, still others such as mild cold or frequent urinating, or rash on chest may or may not be related to the drinks. […] Since the placebo was also the carrier of LG, all adverse events may be due to the placebo drinks.

[3] = tested on: gamma glutamyl transferase (GGT); experiment: Plasma GGT activity (Integra 400); details: 56 days
Description: CMP performed on serum samples at the chemistry laboratory of University of California Medical Center by using the Beckman Coulter DxC800. GGT and CKMB were determined in the EDTA plasma. GGT activity was determined by using Integra 400 Chemistry Analyzer, Roche Diagnostics. CKMB concentration was determined by using the Multiplex kits from Mesoscale Discovery (Gaithersburg, Md. 20877).
SAS PROC MIXED was used to fit the cross-over model (Littell R C, Milliken G A, Stroup W W, Wolfinger R D, Schabenberger O. SAS System for Mixed Models. Cay, N.C.: SAS Institute Inc.; 2006). Transformations were used when appropriate to stabilize the variances among the diets and periods. The fixed effects were order, diet, the interaction and the covariate; and the random effect was subjects within order. The test for order is a test for carry-over effect. […] Comparisons were made between the values at the end of placebo and LG treatments and using the baseline data as a covariate. Results are presented as means±SEM. Differences were considered statistically significant for P value<0.05.

[4] = tested on: prostate specific antigen (PSA); experiment: Plasma free prostate specific antigen in MAP 1.6; details: for decrease of plasma free PSA concentration: vs placebo, n=5
Description: Plasma samples prepared from blood collected in EDTA-containing tubes were stored at −80° C. until tested. The samples were thawed at room temperature, vortexed, spun at 13,000×g for 5 minutes for clarification and 100 uL aliquots were removed for MAP analysis into a master microtiter plate. Using automated pipetting, an aliquot of each sample was introduced into one of the capture microsphere multiplexes of the Human MAP 1.6. This MAP comprised of 89 antigens that included markers for oxidative stress, inflammation, immune status, T2DM, CVD, blood clotting, cancer, liver and kidney functions. All plasma samples were tested in duplicate. The mixture of sample and capture microspheres were thoroughly mixed and incubated at room temperature for 1 hour. Multiplexed cocktails of biotinylated, reporter antibodies for each multiplex were then added robotically and after thorough mixing, were incubated for an additional hour at room temperature. Multiplexes were developed using an excess of streptavidin-phycoerythrin solution which was thoroughly mixed into each multiplex and incubated for 1 hour at room temperature. The volume of each multiplexed reaction was reduced by vacuum filtration and the volume increased by dilution into matrix buffer for analysis. Analysis was performed in a Luminex 100 instrument and the resulting data stream was interpreted using proprietary data analysis software developed at Rules-Based Medicine. For each multiplex, both calibrators and controls were included on each microtiter plate. 8-point calibrators were run in the first and last column of each plate and 3-level controls were included in duplicate. Testing results were determined first for the high, medium and low controls for each multiplex to ensure proper assay performance. Unknown values for each of the analytes localized in a specific multiplex were determined using 4 and 5 parameter, weighted and non-weighted curve fitting algorithms included in the data analysis package. The intra-sample coefficient of variance (CV) for all antigens with concentrations above the lowest detectable dose (LDD) was less than 20%, and was less than 10% for more than 50% of the antigens tested.
as §1

[5] = Complete blood cell count (hematological parameters); set-up: Monocytes / Eosinophil / Basophils / Platelets / WBC / Neutrophils / Lymphocytes: unit not given here
Description: Complete and differential cell counts were performed at the hematology laboratory of University of California Medical Center (UCDMC), Sacramento using Beckman Coulter LH 700.
as §1

[6] = cells stimulated with CD3/28 (each 0.75 μg/mL, 72 hr), End LG, 500 mg/d, 56 days, n = 10, mean ± SEM
[7] = cells stimulated with LPS (10 ng/mL, 24 hr), End LG, 500 mg/d, 56 days, n = 10, mean ± SEM
[8] = End LG, 500 mg/d, 56 days, n = 10, mean ± SEM

In the case of `CC1(C)O[C@H]2CC(=O)OC[C@]23[C@H]2CC[C@@](C)([C@@H](O[C@@H]4O[C@H](CO)[C@@H](O)[C@H](O)[C@H]4O)c4ccoc4)[C@@]4(O[C@@H]4C(=O)O)[C@]2(C)C(=O)C[C@@H]13` [LG, limonin glucoside], the “ex-vivo secretion of cytokines by stimulated T cells and monocytes” value ([1]; LG vs placebo treatment) is reported as “did not differ; also recorded: trend for decrease”, the IL-2 [1, 6] is reported as 58.8 ± 25.8 pg/mL and the IL-4 [1, 6] is reported as 66.7 ± 12.8 pg/mL. The IL-10 [1, 6] was 779 ± 126 pg/mL, the “Interferon γ” value [1, 6] was 51700 ± 10536 pg/mL and the “TNF α” value [1, 6] was 6723 ± 970 pg/mL. For the same compound, the IL-1β [1, 7] was 4731 ± 1123 pg/mL, the IL-6 [1, 7] was 10926 ± 1586 pg/mL and the “TNF α” value [1, 7] was 1354 ± 231 pg/mL. The “concentrations of all secreted cytokines except IL-10 lower than after placebo” value ([1]; ex vivo, CD3/28 or LPS stimulated PBMNC, not significant) was 8-18%, the “effect on parameters of CBC, CMP and MAP 1.6” value ([2]; 500 mg/d, 56 days) was “did not adversely affect” and the serious adverse effects ([2]; 500 mg/d, 56 days) was “did not have any serious adverse effects”. For the same compound, the tolerability ([2]; 500 mg/d, 56 days) was “well tolerated”, the “adverse events reported while taking the drink” value ([2]; out of the 11 adverse events of the study, 7 on placebo drinks) was 4 and the GGT ([3]; EDTA plasma, End LG, 500 mg/d, n = 10, mean ± SEM) was 25.2 ± 8.0 U/L. For the same compound, the “decrease of plasma activity of GGT” value ([3]; vs end of placebo treatment, 0.5 g/d, p=0.001) was 33.8% and 33%, the “subjects in whom free PSA concentration was reduced” value ([4]; 5 men, 5 women) was “all men and 3 women” and the “Prostate-Specific Antigen, Free” value ([4]; plasma, MAP 1.6, End LG, 500 mg/d, 56 days, n = 10, mean ± SEM) was 0.31 ± 0.11 ng/mL. For the same compound, the “decrease of plasma free PSA concentration” value ([4]; men, p=0.059) was 14.5%, the “decrease of plasma free PSA concentration” value ([4]; women, p=0.309) was 22.9% and the Basophils [5, 8] was 0.03 ± 0.00. For the same compound, the “Basophils, % of WBC” value [5, 8] was 0.47 ± 0.04 % of WBC, the Eosinophil [5, 8] was 0.18 ± 0.03 and the “Eosinophil, % of WBC” value [5, 8] was 3.32 ± 0.52 % of WBC. It also gave a Hematocrit [5, 8] of 41.47 ± 1.00%, a Hemoglobin [5, 8] of 13.94 ± 0.61 g/dL and a Lymphocytes [5, 8] of 1.80 ± 0.14. For the same compound, the “Lymphocytes, % of WBC” value [5, 8] was 33.01 ± 2.09 % of WBC, the MCH [5, 8] was 31.08 ± 0.39 pico grams and the MCHC [5, 8] was 33.98 ± 0.16%. The MCV [5, 8] was 91.44 ± 1.29 microns, the Monocytes [5, 8] was 0.42 ± 0.03 and the “Monocytes, % of WBC” value [5, 8] was 7.79 ± 1.03 % of WBC. The Neutrophils [5, 8] was 3.14 ± 0.30, the “Neutrophils, % of WBC” value [5, 8] was 55.41 ± 3.16 % of WBC and the Platelets [5, 8] was 229.00 ± 12.74. The RBC [5, 8] was 4.54 ± 0.13 × 10^−12/L, the RDW [5, 8] was 13.12 ± 0.13% and the WBC [5, 8] was 5.55 ± 0.38. For the same compound, the pH [5, 8] was 6.75 ± 0.27 and the “effect on hematological variables” value ([5]; vs end of placebo treatment, baseline as covariate) was “did not alter”.
